In US9949479B2 (priority 2015, dated 2018):
Values joined by “and” are separate entries in the source; they are usually repeats but may differ in a detail not shown here. Equal entries are not always repeated. Where two headings read alike, the source gives them in different places.

Tests used:
Fusarium asiaticum = assay: microbe, parasite or virus in culture; type: cell-based
leaf blight [1] = type: in vivo; conditions: dose as in E154
powdery mildew [2] = type: in vivo
Fusarium graminearum = assay: microbe, parasite or virus in culture; type: cell-based; conditions: for inhibition at 50 µg/mL: Fusarium graminearum; for Average Fungal Colony Diameter F.g: sensitive strains
wheat scab [3] = type: in vivo, Fusarium spp.
leaf blight [4] = type: in vivo; conditions: Serial 5: preparation 100 g/mu; jinggangmycin 20, metconazole 0 g ai./mu
rust [5] = type: in vivo; conditions: dose as in E145
[6] = type: in vivo, wheat; conditions: dose as in E162
leaf blight [7] = type: in vivo
wheat scab [8] = type: in vivo, Fusarium spp.; remark: listed apart in the source
[9] = type: in vivo, wheat
powdery mildew [10] = type: in vivo; remark: listed apart in the source
rust [11] = type: in vivo
rust [12] = type: in vivo; conditions: Serial 5: preparation 100 g/mu; jinggangmycin 20, metconazole 0 g ai./mu
wheat scab [13] = type: in vivo, Fusarium spp.; remark: listed apart in the source
powdery mildew fungus = type: in vivo; conditions: seed treatment; dose as in E133
wheat scab [14] = type: in vivo, Fusarium spp.; conditions: Serial 5: preparation 100 g/mu; jinggangmycin 20, metconazole 0 g ai./mu
leaf blight [15] = type: in vivo; remark: listed apart in the source
[16] = tested on: DON toxin biosynthesis of carbendazim-resistant fusarium asiaticum; assay: microbe, parasite or virus in culture; type: cell-based; conditions: Fusarium asiaticum, read-out: DON Biosynthesis Inhibition Rate
rust [17] = type: in vivo; remark: listed apart in the source
rust [18] = type: in vivo; conditions: Serial 5: preparation 100; jinggangmycin 20, metconazole 0 g ai./mu
rust [19] = type: in vivo; conditions: dose as in E154
[20] = design: species or system wheat; conditions: in vivo
powdery mildew [21] = type: in vivo; conditions: Serial 5: preparation 100 g/mu; jinggangmycin 20, metconazole 0 g ai./mu
powdery mildew [22] = type: in vivo; remark: listed apart in the source
powdery mildew [23] = type: in vivo; conditions: Serial 5: preparation 100; jinggangmycin 20, metconazole 0 g ai./mu
powdery mildew [24] = type: in vivo; remark: listed apart in the source
[25] = type: in vivo, barley; conditions: dose as in E154
[26] = design: species or system wheat; conditions: in vivo; remark: listed apart in the source
leaf blight [27] = type: in vivo; conditions: Serial 5: preparation 100; jinggangmycin 20, metconazole 0 g ai./mu
wheat scab [28] = type: in vivo, Fusarium spp.; conditions: Serial 5: preparation 100; jinggangmycin 20, metconazole 0 g ai./mu
[29] = Serial 5: preparation 75 g/mu, jinggangmycin 15 g ai./mu alone
[30] = Serial 6: preparation 60 g/mu, jinggangmycin 12 g ai./mu alone
[31] = Serial 7: preparation 45 g/mu, jinggangmycin 9 g ai./mu alone
[32] = Serial 8: preparation 30 g/mu, jinggangmycin 6 g ai./mu alone
[33] = Serial 5: preparation 50 g/mu, jinggangmycin 10 g ai./mu alone
[34] = Serial 6: preparation 37.5 g/mu, jinggangmycin 7.5 g ai./mu alone
[35] = Serial 7: preparation 15 g/mu, jinggangmycin 3 g ai./mu alone
[36] = Serial 11: jinggangmycin 36 g ai./mu alone
[37] = Serial 12: jinggangmycin 18 g ai./mu alone
[38] = Serial 13: jinggangmycin 15 g ai./mu alone
[39] = Serial 14: jinggangmycin 7.5 g ai./mu alone
[40] = Serial 15: jinggangmycin 5 g ai./mu alone
[41] = Serial 16: jinggangmycin 2.5 g ai./mu alone
[42] = Serial 17: jinggangmycin 3 g ai./mu alone
[43] = Serial 18: jinggangmycin 1.5 g ai./mu alone
[44] = Serial 19: jinggangmycin 1 g ai./mu alone
[45] = Serial 20: jinggangmycin 0.5 g ai./mu alone
[46] = Serial 5: preparation 100 g/mu, jinggangmycin 20 g ai./mu alone
[47] = Serial 6: preparation 80 g/mu, jinggangmycin 16 g ai./mu alone
[48] = Serial 7: preparation 40 g/mu, jinggangmycin 8 g ai./mu alone
[49] = Serial 8: preparation 20 g/mu, jinggangmycin 4 g ai./mu alone

SMILES: OCC1=C[C@H](NC2C[C@H](CO)[C@@H](OC3O[C@H](CO)[C@@H](O)[C@H](O)[C@H]3O)[C@H](O)[C@H]2O)[C@H](O)[C@@H](O)[C@@H]1O (stereo partly shown) [Jinggangmycin A, jinggangmycin A]
- Average Fungal Colony Diameter F.a (Fusarium asiaticum): 76.3 mm and 75.6 mm and 69.4 mm
- inhibition at 50 µg/mL (Fusarium asiaticum; Fusarium asiaticum, read-out: Growth Inhibition Rate F.a): 7.8%
- Disease Index Prevention Effect % Leaf Blight (leaf blight [1]): 0% and 6.9%
- Disease Index Prevention Effect % Powdery Mildew (powdery mildew [2]; [29]): 8.6%
- Disease Index Prevention Effect % Powdery Mildew (powdery mildew [2]; [30]): 6.6%
- Disease Index Prevention Effect % Powdery Mildew (powdery mildew [2]; [31]): 3.0%
- Disease Index Prevention Effect % Powdery Mildew (powdery mildew [2]; [32]): 1.8%
- inhibition at 50 µg/mL (Fusarium graminearum; read-out: Growth Inhibition Rate F.g): 6.5%
- inhibition at 50 µg/mL (Fusarium graminearum; read-out: inhibitory effect on the growth of the two types of fusaria): 6.5 to 7.8%
- Average Fungal Colony Diameter F.g (Fusarium graminearum; Jinggangmycin A 0.1 μg/mL): 76.3 mm
- Average Fungal Colony Diameter F.g (Fusarium graminearum; Jinggangmycin A 1.0 μg/mL): 76.2 mm
- Average Fungal Colony Diameter F.g (Fusarium graminearum; Jinggangmycin A 10.0 μg/mL): 75.4 mm
- Average Fungal Colony Diameter F.g (Fusarium graminearum; Jinggangmycin A 50.0 μg/mL): 70.3 mm
- Disease Index Prevention Effect % Head Blight (wheat scab [3]; [29]): 34.2%
- Disease Index Prevention Effect % Head Blight (wheat scab [3]; [30]): 10.2%
- Disease Index Prevention Effect % Head Blight (wheat scab [3]; [31]): 9.4%
- Disease Index Prevention Effect % Head Blight (wheat scab [3]; [32]): 7.4%
- Disease Index Prevention Effect % Leaf Blight (leaf blight [4]): 7.8%
- Disease Index Prevention Effect % Rust (rust [5]): 4.9% and 3.8% and 0%
- Grain Toxin Content [6]: 2.89 μg/g of kernels and 3.24 μg/g of kernels and 3.86 μg/g of kernels and 4.20 μg/g of kernels and 4.77 μg/g of kernels
- Disease Index Prevention Effect % Leaf Blight (leaf blight [7]; [33]): 8.6%
- Disease Index Prevention Effect % Leaf Blight (leaf blight [7]; [34]): 8.8%
- Disease Index Prevention Effect % Leaf Blight (leaf blight [7]; [35]): 5.8%
- Disease Index Prevention Effect % Head Blight (wheat scab [8]; [36]): 31.6%
- Disease Index Prevention Effect % Head Blight (wheat scab [8]; [37]): 28.9%
- Disease Index Prevention Effect % Head Blight (wheat scab [8]; [38]): 24.3%
- Disease Index Prevention Effect % Head Blight (wheat scab [8]; [39]): 16.9%
- Disease Index Prevention Effect % Head Blight (wheat scab [8]; [40]): 5.2%
- Disease Index Prevention Effect % Head Blight (wheat scab [8]; [41]): 0%
- Disease Index Prevention Effect % Head Blight (wheat scab [8]; [42]): 0%
- Disease Index Prevention Effect % Head Blight (wheat scab [8]; [43]): 0%
- Disease Index Prevention Effect % Head Blight (wheat scab [8]; [44]): 0%
- Disease Index Prevention Effect % Head Blight (wheat scab [8]; [45]): 0%
- Grain Toxin Content (mg of DON/Kg of grain) [9, 36]: 2.61 mg of DON/Kg of grain
- Rate of Decrease in Toxin Content in Grains (%) [9, 36]: 59.6%
- Grain Toxin Content (mg of DON/Kg of grain) [9, 37]: 2.86 mg of DON/Kg of grain
- Rate of Decrease in Toxin Content in Grains (%) [9, 37]: 55.7%
- Grain Toxin Content (mg of DON/Kg of grain) [9, 38]: 2.94 mg of DON/Kg of grain
- Rate of Decrease in Toxin Content in Grains (%) [9, 38]: 54.5%
- Grain Toxin Content (mg of DON/Kg of grain) [9, 39]: 3.42 mg of DON/Kg of grain
- Rate of Decrease in Toxin Content in Grains (%) [9, 39]: 47.1%
- Grain Toxin Content (mg of DON/Kg of grain) [9, 40]: 3.86 mg of DON/Kg of grain
- Rate of Decrease in Toxin Content in Grains (%) [9, 40]: 40.2%
- Grain Toxin Content (mg of DON/Kg of grain) [9, 41]: 3.92 mg of DON/Kg of grain
- Rate of Decrease in Toxin Content in Grains (%) [9, 41]: 39.3%
- Grain Toxin Content (mg of DON/Kg of grain) [9, 42]: 3.96 mg of DON/Kg of grain
- Rate of Decrease in Toxin Content in Grains (%) [9, 42]: 38.7%
- Grain Toxin Content (mg of DON/Kg of grain) [9, 43]: 4.82 mg of DON/Kg of grain
- Rate of Decrease in Toxin Content in Grains (%) [9, 43]: 25.4%
- Grain Toxin Content (mg of DON/Kg of grain) [9, 44]: 5.80 mg of DON/Kg of grain
- Rate of Decrease in Toxin Content in Grains (%) [9, 44]: 10.2%
- Grain Toxin Content (mg of DON/Kg of grain) [9, 45]: 5.86 mg of DON/Kg of grain
- Rate of Decrease in Toxin Content in Grains (%) [9, 45]: 9.3%
- Disease Index Prevention Effect % Powdery Mildew (powdery mildew [10]; [36]): 8.5%
- Disease Index Prevention Effect % Powdery Mildew (powdery mildew [10]; [37]): 7.8%
- Disease Index Prevention Effect % Powdery Mildew (powdery mildew [10]; [38]): 7.6%
- Disease Index Prevention Effect % Powdery Mildew (powdery mildew [10]; [39]): 0%
- Disease Index Prevention Effect % Powdery Mildew (powdery mildew [10]; [40]): 0%
- Disease Index Prevention Effect % Powdery Mildew (powdery mildew [10]; [41]): 0%
- Disease Index Prevention Effect % Powdery Mildew (powdery mildew [10]; [42]): 0%
- Disease Index Prevention Effect % Powdery Mildew (powdery mildew [10]; [43]): 0%
- Disease Index Prevention Effect % Powdery Mildew (powdery mildew [10]; [44]): 0%
- Disease Index Prevention Effect % Powdery Mildew (powdery mildew [10]; [45]): 0%
- Disease Index Prevention Effect % Rust (rust [11]; [36]): 7.6%
- Disease Index Prevention Effect % Rust (rust [11]; [37]): 7.2%
- Disease Index Prevention Effect % Rust (rust [11]; [38]): 7.2%
- Disease Index Prevention Effect % Rust (rust [11]; [39]): 0%
- Disease Index Prevention Effect % Rust (rust [11]; [40]): 0%
- Disease Index Prevention Effect % Rust (rust [11]; [41]): 0%
- Disease Index Prevention Effect % Rust (rust [11]; [42]): 0%
- Disease Index Prevention Effect % Rust (rust [11]; [43]): 0%
- Disease Index Prevention Effect % Rust (rust [11]; [44]): 0%
- Disease Index Prevention Effect % Rust (rust [11]; [45]): 0%
- Disease Index Prevention Effect % Rust (rust [12]): 6.5%
- Disease Index Prevention Effect % Head Blight (wheat scab [13]; [33]): 32.4%
- Disease Index Prevention Effect % Head Blight (wheat scab [13]; [34]): 24.2%
- Disease Index Prevention Effect % Head Blight (wheat scab [13]; [35]): 0%
- Incidence Prevention Effect % Powdery Mildew (powdery mildew fungus): 0% and 6.5%
- Disease Index Prevention Effect % Head Blight (wheat scab [14]): 40.2%
- Disease Index Prevention Effect % Leaf Blight (leaf blight [15]; [46]): 8.6%
- Disease Index Prevention Effect % Leaf Blight (leaf blight [15]; [47]): 8.8%
- Disease Index Prevention Effect % Leaf Blight (leaf blight [15]; [48]): 5.8%
- Disease Index Prevention Effect % Leaf Blight (leaf blight [15]; [49]): 0%
- inhibition at 1 µg/mL ([16]; 168 h): 28.6%
- inhibition at 10 µg/mL ([16]; 168 h): 35.5%
- inhibition at 100 µg/mL ([16]; 168 h): 45.2%
- inhibition at 1000 µg/mL ([16]; 168 h): 65.5%
- inhibition at 10000 µg/mL ([16]; 168 h): 75.9%
- inhibition at 1 µg/mL ([16]; 336 h): 1.7%
- inhibition at 10 µg/mL ([16]; 336 h): 7.87%
- inhibition at 100 µg/mL ([16]; 336 h): 29.9%
- inhibition at 1000 µg/mL ([16]; 336 h): 57%
- inhibition at 10000 µg/mL ([16]; 336 h): 75.4%
- Disease Index Prevention Effect % Rust (rust [17]; [33]): 6.8%
- Disease Index Prevention Effect % Rust (rust [17]; [34]): 6.5%
- Disease Index Prevention Effect % Rust (rust [17]; [35]): 0%
- Disease Index Prevention Effect % Rust (rust [18]): 6.5%
- Disease Index Prevention Effect % Rust (rust [19]): 0%
- Thousand Kernel Weight [20]: 43.2 g and 42.8 g and 42.9 g and 42.6 g and 42.0 g and 39.6 g
- Disease Index Prevention Effect % Powdery Mildew (powdery mildew [21]): 10.6%
- Disease Index Prevention Effect % Powdery Mildew (powdery mildew [22]; [33]): 12.6%
- Disease Index Prevention Effect % Powdery Mildew (powdery mildew [22]; [34]): 11.9%
- Disease Index Prevention Effect % Powdery Mildew (powdery mildew [22]; [35]): 0%
- Disease Index Prevention Effect % Powdery Mildew (powdery mildew [23]): 10.6%
- Disease Index Prevention Effect % Powdery Mildew (powdery mildew [24]; [46]): 12.6%
- Disease Index Prevention Effect % Powdery Mildew (powdery mildew [24]; [47]): 11.9%
- Disease Index Prevention Effect % Powdery Mildew (powdery mildew [24]; [48]): 0%
- Disease Index Prevention Effect % Powdery Mildew (powdery mildew [24]; [49]): 0%
- Grain Toxin Content [25]: 6.67 mg of DON/Kg of grain and 5.28 mg of DON/Kg of grain and 4.62 mg of DON/Kg of grain and 3.86 mg of DON/Kg of grain and 3.49 mg of DON/Kg of grain
- Thousand Kernel Weight [26]: 39.2 g and 41.1 g and 39.8 g and 39.5 g
- Disease Index Prevention Effect % Leaf Blight (leaf blight [27]): 7.8%
- Disease Index Prevention Effect % Head Blight (wheat scab [28]): 34.2%
